Measurements: ChEMBL document CHEMBL1157194, “Recent advances in selective alpha1-adrenoreceptor antagonists as antihypertensive agents” (Bioorg Med Chem, 2008)

What was measured:
[1] = Binding affinity to adrenergic alpha1 receptor
[2] = Binding affinity to adrenergic alpha1H receptor
[3] = Binding affinity to adrenergic alpha1N receptor
[4] = Dissociation constant, pKb of the compound; assay type: physicochemical
[5] = target: T1, 5-hydroxytryptamine receptor 1A (Homo sapiens, UniProt P08908); assay: Binding affinity to 5HT1A
T1 sequence (P08908 whole entry): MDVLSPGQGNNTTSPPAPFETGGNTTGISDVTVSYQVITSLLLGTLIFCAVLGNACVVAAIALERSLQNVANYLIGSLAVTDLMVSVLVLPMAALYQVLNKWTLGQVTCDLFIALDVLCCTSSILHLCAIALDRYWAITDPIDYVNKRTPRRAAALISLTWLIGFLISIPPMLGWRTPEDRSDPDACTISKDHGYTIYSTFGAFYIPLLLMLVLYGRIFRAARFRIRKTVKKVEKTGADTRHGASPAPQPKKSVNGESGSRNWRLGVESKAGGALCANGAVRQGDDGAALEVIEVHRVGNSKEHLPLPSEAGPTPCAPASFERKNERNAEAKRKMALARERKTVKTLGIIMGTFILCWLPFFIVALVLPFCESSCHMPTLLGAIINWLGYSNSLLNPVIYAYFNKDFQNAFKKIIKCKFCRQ

[6] = target: T2, Alpha-1A adrenergic receptor (Homo sapiens, UniProt P35348); assay: Binding affinity to adrenergic alpha1A receptor
T2 sequence (P35348 whole entry): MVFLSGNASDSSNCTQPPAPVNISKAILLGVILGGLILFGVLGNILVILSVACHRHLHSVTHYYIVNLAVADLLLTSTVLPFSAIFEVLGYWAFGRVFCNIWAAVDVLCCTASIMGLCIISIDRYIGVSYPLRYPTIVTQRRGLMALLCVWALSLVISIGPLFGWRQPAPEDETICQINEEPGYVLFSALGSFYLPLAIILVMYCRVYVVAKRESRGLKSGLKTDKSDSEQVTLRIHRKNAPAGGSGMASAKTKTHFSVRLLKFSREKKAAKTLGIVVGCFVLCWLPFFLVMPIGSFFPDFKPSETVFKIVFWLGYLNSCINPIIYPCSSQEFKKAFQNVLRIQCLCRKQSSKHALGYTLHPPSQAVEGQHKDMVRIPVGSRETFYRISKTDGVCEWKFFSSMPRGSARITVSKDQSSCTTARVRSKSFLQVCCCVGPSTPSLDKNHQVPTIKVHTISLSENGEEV

D(2) dopamine receptor = D(2) dopamine receptor (Homo sapiens, UniProt P14416); assay: Binding affinity to dopamine D2 receptor
D(3) dopamine receptor = D(3) dopamine receptor (Homo sapiens, UniProt P35462); assay: Binding affinity to dopamine D3 receptor
[7] = Binding affinity to 5HT2
[8] = target: 5-hydroxytryptamine receptor 1B (Homo sapiens, UniProt P28222); assay: Binding affinity to 5HT1B
[9] = Binding affinity to adrenergic alpha2 receptor
[10] = target: T3, Alpha-1A adrenergic receptor (Oryctolagus cuniculus, UniProt O02824); assay: Agonist activity at rabbit urethra adrenergic alpha1A receptor; assay type: functional
T3 sequence (O02824 whole entry): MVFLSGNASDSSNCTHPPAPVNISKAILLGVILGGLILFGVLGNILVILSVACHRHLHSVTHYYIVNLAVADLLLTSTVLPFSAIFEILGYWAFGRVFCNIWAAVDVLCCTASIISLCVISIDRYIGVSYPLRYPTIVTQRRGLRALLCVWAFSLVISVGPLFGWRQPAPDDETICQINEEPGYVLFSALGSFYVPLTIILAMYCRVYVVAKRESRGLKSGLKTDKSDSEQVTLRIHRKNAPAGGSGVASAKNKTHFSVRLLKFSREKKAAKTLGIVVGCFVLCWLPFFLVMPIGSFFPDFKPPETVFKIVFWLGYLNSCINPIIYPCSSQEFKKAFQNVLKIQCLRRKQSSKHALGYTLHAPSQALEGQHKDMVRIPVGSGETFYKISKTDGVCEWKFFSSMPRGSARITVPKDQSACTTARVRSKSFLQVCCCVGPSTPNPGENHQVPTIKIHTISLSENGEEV

[11] = target: T4, Alpha-1A adrenergic receptor (Rattus norvegicus) (UniProt P43140); assay: (§1) Antagonist activity at rat spleen adrenergic alpha1A receptor; assay type: functional, tissue-based
T4 sequence (whole entry): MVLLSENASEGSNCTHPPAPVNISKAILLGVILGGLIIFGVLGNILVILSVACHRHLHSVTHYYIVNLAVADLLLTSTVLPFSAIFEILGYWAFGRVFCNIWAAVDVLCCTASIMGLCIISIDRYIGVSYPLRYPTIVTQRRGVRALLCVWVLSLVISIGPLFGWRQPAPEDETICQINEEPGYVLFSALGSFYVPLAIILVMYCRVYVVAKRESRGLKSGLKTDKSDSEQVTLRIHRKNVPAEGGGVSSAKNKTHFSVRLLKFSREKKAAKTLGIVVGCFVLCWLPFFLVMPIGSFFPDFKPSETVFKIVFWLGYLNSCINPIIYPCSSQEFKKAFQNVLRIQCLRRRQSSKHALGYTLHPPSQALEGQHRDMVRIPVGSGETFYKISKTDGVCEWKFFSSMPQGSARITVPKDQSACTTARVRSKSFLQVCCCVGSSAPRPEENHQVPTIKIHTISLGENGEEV

[12] = target: T5, Alpha-1A adrenergic receptor (Rattus norvegicus, UniProt P43140); assay: as §1; assay type: functional, tissue-based; settings: read-out: pA2 (converted)
T5 sequence (P43140 whole entry): T4 sequence (whole entry)

[13] = target: T6, Alpha-1A adrenergic receptor (Oryctolagus cuniculus) (UniProt O02824); assay: Antagonist activity at rabbit urethra adrenergic alpha1A receptor relative to phenylephrine; assay type: functional; set-up: scale not given: the % may be the effect or the level left
T6 sequence (whole entry): T3 sequence (O02824 whole entry)

[14] = target: T4, Alpha-1A adrenergic receptor (Rattus norvegicus); assay: Antagonist activity at rat spleen adrenergic alpha1A receptor relative to phenylephrine; assay type: functional, tissue-based; set-up: scale not given: the % may be the effect or the level left
D(4) dopamine receptor = target: T7, D(4) dopamine receptor (Homo sapiens, UniProt P21917); assay: Binding affinity to human cloned dopamine D4.4 receptor
T7 sequence (P21917 whole entry): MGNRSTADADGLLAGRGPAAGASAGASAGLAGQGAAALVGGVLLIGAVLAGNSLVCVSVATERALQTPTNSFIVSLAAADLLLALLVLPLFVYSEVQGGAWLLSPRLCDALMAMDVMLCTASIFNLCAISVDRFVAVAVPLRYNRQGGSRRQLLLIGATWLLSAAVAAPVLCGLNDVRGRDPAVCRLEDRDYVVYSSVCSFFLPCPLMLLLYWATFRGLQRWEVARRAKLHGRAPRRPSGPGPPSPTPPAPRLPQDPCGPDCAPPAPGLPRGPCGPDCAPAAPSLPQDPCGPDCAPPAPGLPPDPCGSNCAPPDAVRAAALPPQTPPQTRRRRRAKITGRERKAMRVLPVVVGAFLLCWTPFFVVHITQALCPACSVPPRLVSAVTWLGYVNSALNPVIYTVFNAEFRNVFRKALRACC

[15] = Binding affinity to human cloned dopamine D4.2 receptor
[16] = Binding affinity to human cloned dopamine D4.7 receptor
[17] = target: 5-hydroxytryptamine receptor 2A (Homo sapiens, UniProt P28223); assay: Binding affinity to 5HT2A
[18] = Antagonist activity at adrenergic alpha1 receptor; assay type: functional
[19] = Binding affinity to adrenergic alpha1L receptor
Rattus norvegicus = organism: Rattus norvegicus; assay: Antagonistic activity at alpha 1-adrenoceptor in rat; assay type: functional, organism-based; settings: read-out: pA2 (converted)
Homo sapiens [20] = organism: Homo sapiens; assay: Selectivity for human alpha1A adrenergic receptor over human cloned alpha2A adrenergic receptor
Homo sapiens [21] = organism: Homo sapiens; assay: Selectivity for human alpha1A adrenergic receptor over human cloned alpha2B adrenergic receptor
Homo sapiens [22] = organism: Homo sapiens; assay: Selectivity for human alpha1A adrenergic receptor over human cloned Alpha-2C adrenergic receptor
[23] = Selectivity for alpha2 adrenergic receptor over alpha1 adrenergic receptor
[24] = target: T8, Alpha-1B adrenergic receptor (Homo sapiens) (UniProt P35368); assay: Antagonist activity at adrenergic Alpha-1B receptor; assay type: functional
T8 sequence (whole entry): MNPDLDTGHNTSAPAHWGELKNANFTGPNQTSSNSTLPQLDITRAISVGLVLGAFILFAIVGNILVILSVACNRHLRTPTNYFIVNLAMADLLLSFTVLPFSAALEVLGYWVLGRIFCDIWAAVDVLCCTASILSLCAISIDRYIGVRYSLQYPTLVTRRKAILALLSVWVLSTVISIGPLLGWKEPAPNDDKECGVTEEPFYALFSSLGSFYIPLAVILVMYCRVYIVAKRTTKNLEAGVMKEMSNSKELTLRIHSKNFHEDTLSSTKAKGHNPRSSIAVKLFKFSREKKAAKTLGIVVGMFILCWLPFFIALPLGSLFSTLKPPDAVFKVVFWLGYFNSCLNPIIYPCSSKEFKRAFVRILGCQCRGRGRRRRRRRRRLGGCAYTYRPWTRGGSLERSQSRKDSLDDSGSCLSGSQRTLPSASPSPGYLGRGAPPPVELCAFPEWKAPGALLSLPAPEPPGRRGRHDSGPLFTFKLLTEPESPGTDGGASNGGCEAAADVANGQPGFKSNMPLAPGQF

[25] = target: T9, Alpha-1D adrenergic receptor (Homo sapiens) (UniProt P25100); assay: Antagonist activity at adrenergic Alpha-1D receptor; assay type: functional
T9 sequence (whole entry): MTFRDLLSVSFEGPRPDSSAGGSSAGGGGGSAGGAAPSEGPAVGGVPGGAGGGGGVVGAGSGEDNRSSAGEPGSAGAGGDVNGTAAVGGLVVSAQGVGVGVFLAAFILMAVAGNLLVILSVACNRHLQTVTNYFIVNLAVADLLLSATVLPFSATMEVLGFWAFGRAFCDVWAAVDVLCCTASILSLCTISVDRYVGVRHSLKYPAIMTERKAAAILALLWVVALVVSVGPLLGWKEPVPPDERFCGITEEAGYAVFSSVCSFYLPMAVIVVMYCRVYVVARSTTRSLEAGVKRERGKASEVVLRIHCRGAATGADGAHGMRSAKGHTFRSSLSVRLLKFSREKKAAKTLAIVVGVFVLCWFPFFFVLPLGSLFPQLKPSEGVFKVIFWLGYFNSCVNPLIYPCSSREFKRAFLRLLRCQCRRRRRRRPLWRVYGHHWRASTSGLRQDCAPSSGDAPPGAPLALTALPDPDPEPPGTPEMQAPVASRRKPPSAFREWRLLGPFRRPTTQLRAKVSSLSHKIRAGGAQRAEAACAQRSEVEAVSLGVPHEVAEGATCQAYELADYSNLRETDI

Sequence of D(2) dopamine receptor (P14416 whole entry): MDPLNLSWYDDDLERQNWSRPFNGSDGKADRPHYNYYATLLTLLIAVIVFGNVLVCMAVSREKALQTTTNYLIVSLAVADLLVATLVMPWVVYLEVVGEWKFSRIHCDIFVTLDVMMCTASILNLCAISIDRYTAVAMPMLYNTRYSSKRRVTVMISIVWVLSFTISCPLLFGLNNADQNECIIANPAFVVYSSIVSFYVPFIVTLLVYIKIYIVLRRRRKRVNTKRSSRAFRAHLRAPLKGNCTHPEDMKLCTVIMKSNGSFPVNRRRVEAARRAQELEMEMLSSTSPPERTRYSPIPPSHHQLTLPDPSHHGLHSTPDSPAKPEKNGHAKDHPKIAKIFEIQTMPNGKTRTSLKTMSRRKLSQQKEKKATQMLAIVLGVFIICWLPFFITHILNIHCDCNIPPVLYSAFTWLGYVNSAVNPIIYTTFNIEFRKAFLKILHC
Sequence of D(3) dopamine receptor (P35462 whole entry): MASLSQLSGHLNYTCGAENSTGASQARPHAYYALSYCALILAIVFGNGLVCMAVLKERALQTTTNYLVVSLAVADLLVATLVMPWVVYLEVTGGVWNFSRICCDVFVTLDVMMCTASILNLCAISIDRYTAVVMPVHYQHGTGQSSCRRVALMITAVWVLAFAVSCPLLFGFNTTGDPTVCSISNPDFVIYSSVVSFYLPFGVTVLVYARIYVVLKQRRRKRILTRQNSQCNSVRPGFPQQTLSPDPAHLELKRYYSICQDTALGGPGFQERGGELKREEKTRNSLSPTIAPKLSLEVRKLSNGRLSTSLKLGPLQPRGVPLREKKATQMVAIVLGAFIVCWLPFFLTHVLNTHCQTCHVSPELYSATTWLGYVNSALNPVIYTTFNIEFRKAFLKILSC
Sequence of 5-hydroxytryptamine receptor 2A (P28223 whole entry): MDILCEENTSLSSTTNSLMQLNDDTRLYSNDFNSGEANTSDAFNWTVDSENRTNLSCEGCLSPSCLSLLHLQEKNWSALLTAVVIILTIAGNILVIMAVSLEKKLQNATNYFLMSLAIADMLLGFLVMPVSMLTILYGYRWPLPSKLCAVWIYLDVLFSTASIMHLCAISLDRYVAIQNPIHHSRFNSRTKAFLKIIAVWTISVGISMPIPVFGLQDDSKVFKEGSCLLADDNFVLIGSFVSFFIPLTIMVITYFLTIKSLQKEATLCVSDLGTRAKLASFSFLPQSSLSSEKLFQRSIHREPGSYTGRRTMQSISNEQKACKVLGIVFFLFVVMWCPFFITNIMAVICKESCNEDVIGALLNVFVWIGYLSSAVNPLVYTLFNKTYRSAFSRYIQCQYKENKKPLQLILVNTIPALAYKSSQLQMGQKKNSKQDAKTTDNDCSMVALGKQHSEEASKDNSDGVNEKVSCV
Sequence of 5-hydroxytryptamine receptor 1B (P28222 whole entry): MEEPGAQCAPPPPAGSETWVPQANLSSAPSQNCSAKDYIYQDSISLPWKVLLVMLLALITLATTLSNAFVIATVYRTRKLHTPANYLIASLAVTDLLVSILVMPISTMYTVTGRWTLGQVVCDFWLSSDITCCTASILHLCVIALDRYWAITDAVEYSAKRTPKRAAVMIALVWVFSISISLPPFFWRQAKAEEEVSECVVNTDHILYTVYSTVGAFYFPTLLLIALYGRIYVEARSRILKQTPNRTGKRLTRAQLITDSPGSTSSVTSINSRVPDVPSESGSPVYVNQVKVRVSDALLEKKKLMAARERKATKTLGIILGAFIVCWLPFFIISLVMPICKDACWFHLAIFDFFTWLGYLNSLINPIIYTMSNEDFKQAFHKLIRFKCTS

## NC(=O)CN(CCc1ccccc1)C(=O)CN(C(=O)CNCCc1ccc(O)cc1)c1ccc(-c2ccccc2)cc1
[1]; read-out: Ki
  Ki: 0.32 nM

## COC(=O)[C@@H]1[C@H]2C[C@H]3c4[nH]c5ccccc5c4CCN3C[C@@H]2CC[C@@H]1O
[2]
  Kb: > 300 nM
[3]
  Kb: < 100 nM

## COc1ccccc1OCCN1CCN(c2ccn[nH]c2=O)CC1
[4]
  pKb: 6.18

## CC(C)Oc1ccccc1N1CCN(Cc2cccc(C(=O)N3CCCCC3)c2)CC1 [MAZAPERTINE]
[1]; read-out: Ki
  Ki: < 4 nM
[5]
  Ki: < 4 nM
[6]
  Ki: 0.02 nM
D(2) dopamine receptor
  Ki: < 4 nM
D(3) dopamine receptor
  Ki: < 4 nM
[7]
  Ki: 165 nM
[8]
  Ki: 2880 nM
[9]
  Ki: 17 nM

## NC(=O)CN(CCc1ccc(-c2ccccc2)cc1)C(=O)CN(C(=O)CNCCc1ccc(O)cc1)c1ccc(-c2ccccc2)cc1
[1]; read-out: Ki
  Ki: 310 nM

## CCS(=O)(=O)Nc1cccc(Cc2c[nH]cn2)c1
[10]
  EC50: 60 nM
[11]
  pD2: 6.16
[12]
  Kb: 3980 nM
[13]
  Activity: 80%
[14]
  Activity: 11%

## NC(=O)CN(CCc1ccccc1)C(=O)CN(C(=O)CNCCc1ccc(O)cc1)c1ccc(Oc2ccccc2)cc1
[1]; read-out: Ki
  Ki: 140 nM

## Nc1nc(-c2ccc(F)cc2)c([C@@H]2CCN(CCCC(=O)c3ccc(F)cc3)C2)s1
D(4) dopamine receptor
  Ki: 0.55 nM
[1]; read-out: Ki
  Ki: 1.4 nM
[15]
  Ki: 2.54 nM
[16]
  Ki: 0.54 nM
[17]
  Ki: 1.92 nM

## COc1ccccc1N1CCN(CCNC(=O)c2ccco2)CC1.Cl
[18]
  pA2: 9.12

## COc1cc2nc(N3CCN(C(=O)c4ccco4)CC3)nc(N)c2cc1OC [PRAZOSIN]
[19]
  Kb: > 2 nM
[2]
  Kb: < 1 nM
Rattus norvegicus
  Kb: 10 nM
[1]; read-out: Ki
  Ki: 0.32 nM
[3]
  Kb: > 2 nM

## Cc1cc(C)c2c(N)nc(N3CCN(C(=O)c4ccco4)CC3)nc2n1
Rattus norvegicus
  Kb: 15.8 nM

## CN1CCN(C2=Nc3cc(Cl)ccc3Nc3ccccc32)CC1 [CLOZAPINE]
[1]; read-out: Ki
  Ki: 1.4 nM

## COC(=O)C1=C(C)NC(C)=C(C(=O)NCCCN2CCC(c3ccccc3)(c3ccccc3)CC2)C1c1ccc([N+](=O)[O-])cc1 (configuration not stated)
Homo sapiens [20]
  Selectivity ratio: > 1000
Homo sapiens [21]
  Selectivity ratio: > 1000
Homo sapiens [22]
  Selectivity ratio: > 1000

## COc1ccc(Cl)cc1N1CCN(CCNC(=O)c2ccco2)CC1.Cl
[18]
  pA2: 8.56

## COc1ccccc1OCCN1CCN(c2ccc(=O)n(Cn3nc(N4CCN(CCOc5ccccc5OC)CC4)ccc3=O)n2)CC1
[23]
  Selectivity ratio: > 100

## O=C1NCCN1CCN1CCC(c2cn(-c3ccc(F)cc3)c3ccc(Cl)cc23)CC1
[24]
  Activity: 3.2 nM
[25]
  Activity: 9 nM

## COc1cccc(OC)c1OCCNCC1COc2ccccc2O1 (configuration not stated)
[1]
  Ki: 0.54 nM

## O=C(CCCN1CCC(O)(c2ccc(Cl)cc2)CC1)c1ccc(F)cc1 [HALOPERIDOL]
[1]; read-out: Ki
  Ki: 1 nM

## COc1cccc(N2CCN(CCNC(=O)c3ccco3)CC2)c1.Cl
[18]
  pA2: 8.56
